The values below come from patent US12129264B2, “Crystalline forms of a PAR4 inhibitor” (BRISTOL-MYERS SQUIBB COMPANY, priority 2018, dated 2024).

Data set [1] in a line: Microdissolution of co-crystals versus free form in FaSSIF (pION Microdissolution Profiler). In kind it is physicochemical. The following applies: for AUC (extent of dissolution), Mean / Dissolution Rate, Mean: FaSSIF pH 6.5, 15 mL at 37° C., 150 rpm, API powder 0.2 mg/mL, N = 4; for AUC (extent of dissolution), Mean: 180 min, trapezoidal rule. The protocol:
The dissolution of the N-1 form of the citric acid and the succinic acid co-crystals of the compound of formula (I) were tested against that of the free form of the compound of formula (I). The dissolution properties, rate and extent, and peak solubility were tested in FaSSIF (fasted state simulated intestinal fluid).
This experiment was performed on a pION Microdissolution Profiler™ an API sparing, low volume dissolution instrument with UV fiber optics (UVFO) probes to measure real-time dissolution profile in biorelevant media. The experimental was run under the following conditions: • Apparatus: plon Microdissolution profiler • Media: FaSSIF, pH 6.5 • Volume: 15 mL at 37° C. • Stirring: 150 rpm with small stirrer bar • Dose: API powder at 0.2 mg/mL or 3 mg/vial • Study duration: 180 min
Time points: several time points to capture initial dissolution rate and through 180 min (typical time for absorption)
The results were analyzed using UVFO Analysis: Standard curve range 0-3 μg/mL; 10 mm path length probe windows; detection wavelength 315 nm; slope ˜17 μg/mL/AU; R2=0.99.

Data set [2] can be described thus: Pharmacokinetic study of co-crystal capsules in the dog model. It counts as in vivo. As to conditions: for Systemic absorption in the dog model: at relevant doses (5 mg capsule); for AUC0-24h, Mean / Cmax, Mean / Tmax: capsule, 5 mg/dog, pentagastrin pre-treated fasted male dogs, crossover in 4 dogs. The protocol:
The co-crystals were tested using the following formulations: • 1. Succinic Acid co-crystal capsule (5 mg dose)—Pentagastrin pre-treated, fasted dogs • 2. Citric Acid co-crystal capsule (5 mg dose)—Pentagastrin pre-treated, fasted dogs
The Study Design is as follows:
Crossover in 4 fasted male dogs (˜10 kg); dose 5 mg/dog; flush with 50 mL water; 2-week washout between treatments; 8 blood sample points per treatments.

Regarding `COc1cc(OCc2csc(-c3ccc(C(=O)N(C)C)cc3)n2)c2cc(-c3cn4nc(OC)sc4n3)oc2c1` [Free form, 4-(4-(((6-Methoxy-2-(2-methoxyimidazo[2,1-b][1,3,4]thiadiazol-6-yl)benzofuran-4-yl)oxy)methyl)thiazol-2-yl)-N,N-dimethylbenzamide], in data set [1], the “AUC (extent of dissolution), Mean” value stood at 0 µg·min/mL and the “Dissolution Rate, Mean” value came to 0 µg/mL/min.

By Tmax is commonly meant the time at which the peak concentration occurs. Regarding “4-(4-(((6-Methoxy-2-(2-methoxyimidazo[2,1-b][1,3,4]thiadiazol-6-yl)benzofuran-4-yl)oxy)methyl)thiazol-2-yl)-N,N-dimethylbenzamide: citric acid co-crystal (1:1), form N-1 [Example 2]”, in data set [2], the “Systemic absorption in the dog model” value is reported as “measurable systemic absorption”; the “AUC0-24h, Mean” value was 161.61 ng·h/mL; the “Cmax, Mean” value was found to be 29.28 ng/mL; the Tmax is reported as 2.0 h. Also, in data set [1], the “Dissolution in FaSSIF compared with the free form” value is listed as “better than the free form”; the “AUC (extent of dissolution), Mean” value worked out at 988.900 µg·min/mL; the “Dissolution Rate, Mean” value was 0.584 µg/mL/min.

For “4-(4-(((6-Methoxy-2-(2-methoxyimidazo[2,1-b][1,3,4]thiadiazol-6-yl)benzofuran-4-yl)oxy)methyl)thiazol-2-yl)-N,N-dimethylbenzamide: succinic acid co-crystal (1:0.5) [Example 1]”, in data set [2], the “Systemic absorption in the dog model” value is recorded as “measurable systemic absorption”; the “AUC0-24h, Mean” value is 93.97 ng·h/mL; the “Cmax, Mean” value is reported as 12.22 ng/mL; the time of peak concentration (Tmax) is listed as 1.5 h. Further, in data set [1], the “Dissolution in FaSSIF compared with the free form” value is given as “better than the free form”; the “AUC (extent of dissolution), Mean” value came out at 272.622 µg·min/mL; the “Dissolution Rate, Mean” value was determined as 0.144 µg/mL/min.
